Experimental data reported in patent US11236045B2, “Substituted sulfoximine compounds” (CADILA HEALTHCARE LIMITED, priority 2017, dated 2022).

tested on: IL-1β; experiment: In vitro IL-1β inhibition in PMA-differentiated, LPS-primed, ATP-stimulated THP1 cells; format: cell-based; conditions: Homo sapiens, THP-1; THP1 monocytes differentiated with PMA, primed with 500 ng/ml LPS 4 hrs, compound 30 min, 5 mM ATP 1 hr; IL-1b in supernatant; read-out: in vitro IL-1β inhibitory activity IC50
Protocol: THP1 ([…]) monocytes were differentiated with PMA (Phorbol 12-myristate 13-acetate) (100 ng/ml) and incubated at 37° C. for 20 h in presence of 5% CO2. 2×10^5 differentiated cells were plated per well of 96 well tissue culture plates. The cells were primed using 500 ng/ml Lipopolysaccharide and incubating for 4 hrs under the same condition. The cells were then treated with various concentrations of the compounds for 30 min followed by treatment with 5 mM ATP for 1 hr. The supernatants were collected and analysed by IL-1b (Mabtech Cat #3415-1H-20) or TNF-a (Mabtech; Cat #3510-1H-20) detection kit. The data were analyzed using GraphPad Prism V7.0. Dose Response Curve (DRC) was constructed to determine the IC50 value by fitting percentage cell survival data to the GraphPad Prism using nonlinear regression analysis.

`CC(C)(O)c1cc(S(=O)(=NC#N)NC(=O)Nc2c3c(cc4c2CCC4)CCC3)ccc1F` (centres unmarked) [Example 63, N′-cyano-4-fluoro-N-((1,2,3,5,6,7-hexahydro-s-indacen-4-yl)carbamoyl)-3-(2-hydroxypropan-2-yl)benzenesulfonimidamide] and `CC(C)(O)c1ccc(F)c(S(=O)(=NC#N)NC(=O)Nc2c3c(cc4c2CCC4)CCC3)c1` (centres unmarked) [Example 64, N′-cyano-2-fluoro-N-((1,2,3,5,6,7-hexahydro-s-indacen-4-yl)carbamoyl)-5-(2-hydroxypropan-2-yl)benzenesulfonimidamide] are within 1.5-fold of each other in IC50: 7.8 nM for the first, 7.7 nM for the second.

First: N#CN=S(=O)(NC(=O)Nc1c2c(cc3c1CCC3)CCC2)c1cccs1 (centres unmarked) [Example 51, N′-cyano-N-((1,2,3,5,6,7-hexahydro-s-indacen-4-yl)carbamoyl)thiophene-2-sulfonimidamide]
Second: N#CN=S(=O)(NC(=O)Nc1c2c(cc3c1CCC3)CCC2)c1ccc(Br)s1 (centres unmarked) [Example 37, 5-bromo-N′-cyano-N-((1,2,3,5,6,7-hexahydro-s-indacen-4-yl)carbamoyl)thiophene-2-sulfonimidamide]
The IC50 of the first is 3.4-fold higher: 19 nM for the first, 5.6 nM for the second.

Going from `N#CN=S(=O)(NC(=O)Nc1c2c(cc3c1CCC3)CCC2)c1ccc(F)cc1` (centres unmarked) [Example 21, N′-cyano-4-fluoro-N-((1,2,3,5,6,7-hexahydro-s-indacen-4-yl)carbamoyl)benzenesulfonimidamide] to `N#CN=S(=O)(NC(=O)Nc1c2c(cc3c1CCC3)CCC2)c1ccc(Br)cc1` (centres unmarked) [Example 27, 4-bromo-N′-cyano-N-((1,2,3,5,6,7-hexahydro-s-indacen-4-yl)carbamoyl)benzenesulfonimidamide], the IC50 falls from 62 nM to 27 nM (2.3-fold).

`N#CN=S(=O)(Cc1ccccc1)NC(=O)Nc1c2c(cc3c1CCC3)CCC2` (centres unmarked) [Example 48, N′-cyano-N-((1,2,3,5,6,7-hexahydro-s-indacen-4-yl)carbamoyl)-1-phenylmethanesulfonimidamide] and `N#CN=S(=O)(Cc1ccc(C#N)cc1)NC(=O)Nc1c2c(cc3c1CCC3)CCC2` (centres unmarked) [Example 66, N′-cyano-1-(4-cyanophenyl)-N-((1,2,3,5,6,7-hexahydro-s-indacen-4-yl)carbamoyl)-methanesulfonimidamide] are within 1.5-fold of each other in IC50: 3.5 nM for the first, 4 nM for the second.

Going from `C=C(C)c1coc(S(=O)(=NC#N)NC(=O)Nc2c3c(cc4c2CCC4)CCC3)c1` (centres unmarked) [Example 36, N′-cyano-N-((1,2,3,5,6,7-hexahydro-s-indacen-4-yl)carbamoyl)-4-(prop-1-en-2-yl)furan-2-sulfonimidamide] to `CC(C)(O)c1coc(S(=O)(=NC#N)NC(=O)Nc2c3c(cc4c2CCC4)CCC3)c1` (centres unmarked) [Example 39, N′-cyano-N-((1,2,3,5,6,7-hexahydro-s-indacen-4-yl)carbamoyl)-4-(2-hydroxypropan-2-yl)furan-2-sulfonimidamide], the IC50 falls from 32 nM to 3.3 nM (9.7-fold). The second is the more potent here.

Going from `COc1cccc(S(=O)(=NC#N)NC(=O)Nc2c3c(cc4c2CCC4)CCC3)c1` (centres unmarked) [Example 38, N′-cyano-N-((1,2,3,5,6,7-hexahydro-s-indacen-4-yl)carbamoyl)-3-methoxybenzenesulfonimidamide] to `N#CN=S(=O)(NC(=O)Nc1c2c(cc3c1CCC3)CCC2)c1cccc(F)c1` (centres unmarked) [Example 58, N′-cyano-3-fluoro-N-((1,2,3,5,6,7-hexahydro-s-indacen-4-yl)carbamoyl)benzenesulfonimidamide], the IC50 rises from 17 nM to 38 nM (2.2-fold).

First: Cc1cccc(S(=O)(=NC#N)NC(=O)Nc2c3c(cc4c2CCC4)CCC3)n1 (centres unmarked) [Example 53, N′-cyano-N-((1,2,3,5,6,7-hexahydro-s-indacen-4-yl)carbamoyl)-6-methylpyridine-2-sulfonimidamide]
Second: Cc1ccc(F)c(S(=O)(=NC#N)NC(=O)Nc2c3c(cc4c2CCC4)CCC3)c1 (centres unmarked) [Example 42, N′-cyano-2-fluoro-N-((1,2,3,5,6,7-hexahydro-s-indacen-4-yl)carbamoyl)-5-methylbenzene-sulfonimidamide]
The IC50 of the first is 19-fold higher: 45 nM for the first, 2.4 nM for the second.

`COc1ccc(S(=O)(=NC#N)NC(=O)Nc2c3c(cc4c2CCC4)CCC3)cc1` (centres unmarked) [Example 19, N′-cyano-N-((1,2,3,5,6,7-hexahydro-s-indacen-4-yl)carbamoyl)-4-methoxybenzenesulfonimidamide] and `N#CN=S(=O)(NC(=O)Nc1c2c(cc3c1CCC3)CCC2)c1ccc(Cl)cc1` (centres unmarked) [Example 26, 4-chloro-N′-cyano-N-((1,2,3,5,6,7-hexahydro-s-indacen-4-yl)carbamoyl)benzenesulfonimidamide] are the same in IC50: 23 nM for the first, 23 nM for the second.

Going from `N#CN=S(=O)(NC(=O)Nc1c2c(cc3c1CCC3)CCC2)c1cccc([N+](=O)[O-])c1` (centres unmarked) [Example 18, N′-cyano-N-((1,2,3,5,6,7-hexahydro-s-indacen-4-yl)carbamoyl)-3-nitrobenzenesulfonimidamide] to `CC(C)(O)c1cccc(S(=O)(=NC#N)NC(=O)Nc2c3c(cc4c2CCC4)CCC3)c1` (centres unmarked) [Example 34, N′-cyano-N-((1,2,3,5,6,7-hexahydro-s-indacen-4-yl)carbamoyl)-3-(2-hydroxypropan-2-yl)benzenesulfonimidamide], the IC50 falls from 15 nM to 3 nM (5-fold). The second is the more potent here.

`N#CN=S(=O)(NC(=O)Nc1c2c(cc3c1CCC3)CCC2)c1cccc(C(O)(C(F)(F)F)C(F)(F)F)c1` (centres unmarked) [Example 43, N′-cyano-3-(1,1,1,3,3,3-hexafluoro-2-hydroxypropan-2-yl)-N-((1,2,3,5,6,7-hexahydro-s-indacen-4-yl)carbamoyl)benzenesulfonimidamide] and `N#CN=S(=O)(NC(=O)Nc1c2c(cc3c1CCC3)CCC2)c1ccc(C(F)(F)F)cc1` (centres unmarked) [Example 29, N′-cyano-N-((1,2,3,5,6,7-hexahydro-s-indacen-4-yl)carbamoyl)-4-(trifluoromethyl)-benzenesulfonimidamide] are within 1.5-fold of each other in IC50: 27 nM for the first, 32 nM for the second.

First: N#CN=S(=O)(NC(=O)Nc1c2c(cc3c1CCC3)CCC2)c1ccc2c(c1)OCCO2 (centres unmarked) [Example 40, N′-cyano-N-((1,2,3,5,6,7-hexahydro-s-indacen-4-yl)carbamoyl)-2,3-dihydrobenzo[b][1,4]dioxine-6-sulfonimidamide]
Second: COc1ccc(S(=O)(=NC#N)NC(=O)Nc2c3c(cc4c2CCC4)CCC3)cc1OC (centres unmarked) [Example 52, N′-cyano-N-((1,2,3,5,6,7-hexahydro-s-indacen-4-yl)carbamoyl)-3,4-dimethoxybenzene-sulfonimidamide]
The IC50 of the first is 3-fold higher: 13 nM for the first, 4.4 nM for the second.

Going from `CC(C)(O)c1cncc(S(=O)(=NC#N)NC(=O)Nc2c3c(cc4c2CCC4)CCC3)c1` (centres unmarked) [Example 65, N′-cyano-N-((1,2,3,5,6,7-hexahydro-s-indacen-4-yl)carbamoyl)-5-(2-hydroxypropan-2-yl)pyridine-3-sulfonimidamide] to `CC(C)(O)c1ccc(S(=O)(=NC#N)NC(=O)Nc2c3c(cc4c2CCC4)CCC3)cc1` (centres unmarked) [Example 17, N′-cyano-N-((1,2,3,5,6,7-hexahydro-s-indacen-4-yl)carbamoyl)-4-(2-hydroxypropan-2-yl)benzenesulfonimidamide], the IC50 rises from 1.26 nM to 12 nM (9.5-fold). The first is the more potent here.

`COc1ccc(S(=O)(=NC#N)NC(=O)Nc2c3c(cc4c2CCC4)CCC3)cn1` (centres unmarked) [Example 24, N′-cyano-N-((1,2,3,5,6,7-hexahydro-s-indacen-4-yl)carbamoyl)-6-methoxypyridine-3-sulfonimidamide] and `N#CN=S(=O)(NC(=O)Nc1c2c(cc3c1CCC3)CCC2)c1ccc(F)cc1F` (centres unmarked) [Example 45, N′-cyano-2,4-difluoro-N-((1,2,3,5,6,7-hexahydro-s-indacen-4-yl)carbamoyl)benzenesulfonimidamide] are within 1.5-fold of each other in IC50: 34 nM for the first, 23 nM for the second.

Compared with `N#CN=S(=O)(NC(=O)Nc1c2c(cc3c1CCC3)CCC2)c1cc(F)cc(F)c1` (centres unmarked) [Example 44, N′-cyano-3,5-difluoro-N-((1,2,3,5,6,7-hexahydro-s-indacen-4-yl)carbamoyl)benzenesulfonimidamide], `N#CN=S(=O)(NC(=O)Nc1c2c(cc3c1CCC3)CCC2)c1ccc(C2(O)COC2)cc1` (centres unmarked) [Example 35, N′-cyano-N-((1,2,3,5,6,7-hexahydro-s-indacen-4-yl)carbamoyl)-4-(3-hydroxyoxetan-3-yl)benzenesulfonimidamide] is 4.8-fold lower in IC50: 63 nM for the first, 13 nM for the second. The second is the more potent here.

`CC(C)(O)c1ccc(S(=O)(=NC#N)NC(=O)Nc2c3c(cc4c2CCC4)CCC3)s1` (centres unmarked) [Example 41, N′-cyano-N-((1,2,3,5,6,7-hexahydro-s-indacen-4-yl)carbamoyl)-5-(2-hydroxypropan-2-yl)thiophene-2-sulfonimidamide] showed an IC50 of 4.8 nM.
